OCC1(O)OC[C@@H](O)[C@H](O)[C@@H]1O (stereo not given in full)
solubility (mole fraction)
Details | 283.15 K | 288.15 K | 293.15 K | 298.15 K | 303.15 K | 308.15 K | 313.15 K | 318.15 K | 323.15 K
in ethanol | 0.00138 | 0.00168 | 0.00193 | 0.00219 | 0.00245 | 0.00288 | 0.00328 | 0.00395 | 0.00468
in isopropanol | 0.00038 | 0.00041 | 0.0006 | 0.00088 | 0.00121 | 0.0015 | 0.00171 | 0.00211 | 0.00261
in methanol | 0.00414 | 0.00553 | 0.00609 | 0.00758 | 0.00892 | 0.0101 | 0.0121 | 0.0155 | 0.0166
in n-propanol | 0.00038 | 0.00043 | 0.00062 | 0.00088 | 0.00127 | 0.00164 | 0.002 | 0.00238 | 0.00272
in water | 0.0976 | 0.106 | 0.116 | 0.124 | 0.135 | 0.146 | 0.155 | 0.166 | 0.175

— BigSolDB 2.1
